In PubChem BioAssay (NCI):
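Results reflect a 48-hour exposure of cells in 96-well plates to compound at five concentrations. GI50 = concentration required for 50% inhibition of growth. At the TGI there is no net growth.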

Legend:
Test in all cases: NCI-60 cell line screen, 48 h
[1] = test system: EKVX NSCLC
[2] = test system: RPMI-8226 leukemia
[3] = test system: SF-539 CNS
[4] = test system: SK-MEL-2 melanoma
[5] = test system: SNB-75 CNS
[6] = test system: DLD-1 colon
[7] = test system: M19-MEL melanoma
[8] = test system: SNB-78 CNS
[9] = test system: DMS 114 small cell lung

Structure (SMILES)	TGI [1]	TGI [2]	TGI [3]	TGI [4]	TGI [5]	GI50 [2]	GI50 [3]	TGI [6]	TGI [7]	TGI [8]	TGI [9]
CC1(C)OC2OC(C(=O)c3ccccc3)C3OC(C)(C)OC3C2O1 (centres undefined)	> 100 µM	> 100 µM	> 100 µM	> 100 µM	> 100 µM						
Cc1cc2c(cc1-c1cc3c(cc1C)C(C(C)C)=C(O)C(=O)/C3=C\Nc1ccccn1)/C(=C/Nc1ccccn1)C(=O)C(O)=C2C(C)C	> 100 µM	> 100 µM	> 100 µM	86.5 µM	> 100 µM						
O=C1c2ccccc2C(=O)c2c(NCC3CO3)cccc21 (centres undefined)	> 57.6 µM	> 85 µM	> 100 µM	32 µM	> 100 µM						
CCOC(=O)[C@H](CO)Nc1c(O)c2c(c(O)c1Cl)C(=O)C=CC2=O	> 10 µM	> 10 µM	> 10 µM	> 10 µM	> 10 µM						
O=C(CBr)NCCc1c[nH]c2ccccc12	3.72 µM	4.31 µM	3.52 µM	4.16 µM	3.12 µM						
Cc1ccc(S(=O)(=O)NCCCSCCO)cc1					> 100 µM						
COc1cc(/C=C/c2ccc(S(N)(=O)=O)cc2)cc(OC)c1	86 µM	31.5 µM	46.2 µM	40.3 µM	53.1 µM	14.3 µM	18.8 µM				
O=C(NCCC1CN(S(=O)(=O)C(F)(F)F)c2ccccc21)OCc1ccccc1 (centres undefined)	> 100 µM	> 100 µM		> 100 µM							
CCOP(=O)(OCC)C(C)(CC)/N=C(\N)NC#N (centres undefined)	> 100 µM	> 100 µM	> 100 µM	> 100 µM	> 100 µM						
COc1cc(C(=O)N(C(=O)N2CCCCC2)c2ccccc2)cc(OC)c1OC	> 100 µM	> 100 µM	> 100 µM	> 100 µM	> 100 µM						
CN(C)C=Nc1c2c(nc3ccccc13)CCCC2	> 100 µM	> 100 µM	> 100 µM	> 100 µM	> 100 µM						
CC(C)(CO)NC(=O)c1cccs1	> 100 µM	> 100 µM		> 100 µM							
N#Cc1c(O)c(C=O)c(=O)n2c1[nH]c1ccccc12	> 100 µM	> 100 µM	> 100 µM		> 100 µM						
C=C(C)[C@@H]1CCC2=C(CC[C@]3(C)[C@@H]([C@@H](CCC=C(C)C)C(=O)O)[C@H](O)C[C@@]23C)[C@@]1(C)CCC(=O)O	> 100 µM	> 100 µM	> 100 µM	> 100 µM	> 100 µM						
CC1(C)OC2[C@@H](CO[C@@]3([C@H]4OC(C)(C)O[C@@H]4CO)OC(C)(C)O[C@@H]23)O1 (some centres undefined)	> 100 µM	> 100 µM		> 100 µM	> 100 µM						
COc1cc2c(cc1OC)-c1[nH]c3ccc([N+](=O)[O-])cc3c1CC(=O)N2	> 84.3 µM	47.8 µM	0.716 µM	> 52.3 µM	8.93 µM						
COC(=O)C1=C(C)NC2=C(C(=O)c3ccccc32)C1c1cn[nH]c1-c1ccccc1 (centres undefined)	> 100 µM	> 100 µM	> 100 µM	> 100 µM	> 100 µM						

Structure (SMILES)	TGI [1]	TGI [2]	TGI [3]	TGI [4]	TGI [5]	GI50 [2]	GI50 [3]	TGI [6]	TGI [7]	TGI [8]	TGI [9]
O=C1[C@H](O)[C@@H]2CCC[C@@]23CCCN13	> 100 µM	> 100 µM	> 100 µM		> 100 µM						
CON(C(=O)OC(C)(C)C)c1ccccc1	> 100 µM	> 100 µM		> 100 µM	> 100 µM						
CCc1n[nH]c(=O)n1N=C(c1ccccc1)c1ccccc1	93.3 µM	> 100 µM		> 100 µM							
CC(=O)N1CCN(CCCCN2c3ccccc3Sc3cc(N=[N+]=[N-])ccc32)CC1	32.7 µM	29.1 µM	31.8 µM		26.2 µM						
Cc1csc2c(=O)n(COCc3ccccc3)c(=O)[nH]c12	> 100 µM	> 100 µM	> 100 µM		> 100 µM						
N#CCN1CCCN(CC#N)CCN(CC#N)CCCN(CC#N)CC1		> 100 µM	> 100 µM	> 100 µM	> 100 µM						
CN(C)CCCN=c1c2ccccc2n(C)c2[nH]c(=O)n(C)c(=O)c12	28.9 µM	> 54.4 µM	22.4 µM	9.96 µM	21.5 µM						
CC(=O)CC12NC(=O)N(C)N=C1N(C)C(=O)N(C)C2=O (centres undefined)	> 100 µM	> 100 µM	72.9 µM		> 100 µM						
CCN(CCN(CC)C(=O)NC)C(=O)NC	> 100 µM	> 100 µM		> 100 µM	> 100 µM						
CC(=O)OC12OC(C)(C3C(=O)N(c4ccccc4)C(=O)C31)N(c1ccccc1)C2=O (centres undefined)	> 100 µM		> 100 µM	> 100 µM	> 100 µM						
O=C1C(c2c(O)[nH]c3ccc(I)cc23)=Nc2ccccc21	> 49.4 µM	> 100 µM	23.3 µM	15.4 µM	17 µM						
COc1ccc(C=NCCCN=Cc2ccc(OC)cc2O)c(O)c1	> 100 µM	> 100 µM		> 100 µM	64.8 µM						
NCCN(CCN)/[N+]([O-])=N/O	> 100 µM	> 100 µM	> 100 µM	> 100 µM	> 100 µM						
COCC1N=C(c2cc(OC)c(OC)c(OC)c2-c2cc3c(cc2[C@@H](C)O)OCO3)O[C@H]1c1ccccc1 (some centres undefined)	> 95.5 µM	> 100 µM	> 100 µM	> 87.7 µM	> 72.3 µM			> 100 µM	> 100 µM	> 87.4 µM	
Cn1c(=O)oc2cc(C(=S)N3CCCCC3)ccc21	> 100 µM	> 100 µM	> 100 µM	> 100 µM	> 100 µM						
Cc1cc(=O)[nH]c(NNC(C#N)c2ccc(N(C)C)cc2)n1 (centres undefined)		> 100 µM	> 100 µM	> 100 µM	> 100 µM			> 100 µM	> 100 µM	> 100 µM	> 100 µM
Brc1ccc(C[N+]23CN4CN(CN(C4)C2)C3)cc1	> 100 µM	59.5 µM	> 100 µM		> 100 µM				> 100 µM	> 100 µM	51.1 µM
